This experiment deals with T1, 20S proteasomes purified from a B-LCL cell line (immunoproteasomes) (Homo sapiens, UniProt P28062+P28065+P40306).
T1 construct: 20S proteasomes were purified from a B-LCL cell line; endogenous in cells; purified after Groettrup et al. 1995
Description: In vitro proteasome mediated cleavage analysis. To be noted: for Processing C-term: generation by proteasome-mediated digestion of fragments containing the correct C-terminus: 1 h digestion; for Intact Fragment: intact epitope found in digestion fragments: after 1 h digestion; for C-term. generation: generation of C-terminus of the epitope after 1 h digestion; for Intact in fragment: intact epitope found in digestion fragments after 1 h digestion. Also on record: key to Intact in fragment / Intact Fragment: intact epitope found in digestion fragments: (+), present; (-), not present; key to Processing C-term: generation by proteasome-mediated digestion of fragments containing the correct C-terminus: (++) fragments present for >5%; (+) present for <5%; (-) no fragments containing the C-term. were found. The experiment is classed as biochemical. How it is done:
20S proteasomes were purified from a B-LCL cell line as described by Groettrup et al. (J. Biol. Chem. 270:23808-23815; 1995). This cell type is known to contain immunoproteasomes. High LMP2 and 7 content was confirmed by 2-D immuno-blotting. To assess kinetics, digestions were performed with different incubation periods. Peptides (27 mers, 20 μg) were incubated with 1 μg of purified proteasome at 37° C. for 1 h, 4 h and 24 h in 300 μl proteasome digestion buffer as described (Eggers, et al. 1995. J. Exp. Med. 182:1865). Trifluoroacetic acid was added to stop the digestion and samples were stored at −20° C. before mass spectrometric analysis.
Electrospray ionization mass spectrometry was performed on a hybrid quadrupole time-of-flight mass spectrometer, a Q-TOF (Micromass), equipped with an on-line nanoelectrospray interface with an approximate flow rate of 250 nL/min. Injections were done with a dedicated micro/nano HPLC autosampler, the FAMOS (LC Packings). Digestion solutions were diluted five times in water-methanol-acetic acid (95:5:1, v/v/v), and trapped on the precolumn (MCA-300-05-C8; LC Packings) in water-methanol-acetic acid (95:5:1, v/v/v). Washing of the precolumn was done for 3 min to remove the buffers present in the digests. Subsequently, the trapped analytes were eluted with a steep gradient going from 70% B to 90% B in 10 min, with a flow of 250 nl/min (A: water-methanol-acetic acid (95:5:1, v/v/v); B: water-methanol-acetic acid (10:90:1, v/v/v)). This low elution rate allows for a few additional MS/MS experiments if necessary during the same elution. Mass spectra were recorded from mass 50-2000 Da every second. The resolution allows direct determination of the monoisotopic mass, also from multiple charged ions. The peaks in the mass spectrum were searched in the digested precursor peptide using the Biolynx/proteins software (Micromass). The intensity of the peaks in the mass spectra was used to establish the relative amounts of peptides generated by proteasome digestion.

For `CC(C)C[C@H](NC(=O)[C@@H](NC(=O)[C@H](CCC(N)=O)NC(=O)[C@H](CO)NC(=O)[C@H](Cc1c[nH]cn1)NC(=O)[C@H](CCCNC(=N)N)NC(=O)CNC(=O)[C@H](CC(=O)O)NC(=O)[C@H](Cc1ccccc1)NC(=O)[C@H](C)N)[C@@H](C)O)C(=O)O`, the “Processing C-term: generation by proteasome-mediated digestion of fragments containing the correct C-terminus” value was “+ ((+) present for <5%)”, the “Intact Fragment: intact epitope found in digestion fragments” value (“Intact Fragment: intact epitope found” for short) is on record as “+”, the C-term. generation result is listed as “+ (low abundant (+) present for <5%)” and the Intact in fragment result is listed as “+”.
In the case of `CC[C@H](C)[C@H](NC(=O)[C@H](C)N)C(=O)N[C@@H](C)C(=O)N[C@@H](C)C(=O)N[C@@H](CC(C)C)C(=O)N[C@@H](CCC(=O)O)C(=O)N[C@@H](CC(C)C)C(=O)N[C@@H](CC(C)C)C(=O)N1CCC[C@H]1C(=O)N[C@@H](CCCNC(=N)N)C(=O)O`, the “Processing C-term: generation by proteasome-mediated digestion of fragments containing the correct C-terminus” value is recorded as “-” and the “Intact Fragment: intact epitope found” value is “-”.
For `CC[C@H](C)[C@H](NC(=O)[C@H](C)NC(=O)[C@H](CC(C)C)NC(=O)[C@H](C)N)C(=O)N[C@@H](C)C(=O)N[C@@H](C)C(=O)N[C@@H](CC(C)C)C(=O)N[C@@H](CCC(=O)O)C(=O)N[C@@H](CC(C)C)C(=O)O`, the “Processing C-term: generation by proteasome-mediated digestion of fragments containing the correct C-terminus” value is given as “-” and the “Intact Fragment: intact epitope found” value is listed as “-”.
As to `CC[C@H](C)[C@H](NC(=O)[C@H](C)NC(=O)[C@H](CC(C)C)NC(=O)[C@H](C)N)C(=O)N[C@@H](C)C(=O)N[C@@H](C)C(=O)N[C@@H](CC(C)C)C(=O)N[C@@H](CCC(=O)O)C(=O)N[C@@H](CC(C)C)C(=O)N[C@@H](CC(C)C)C(=O)O`, the “Processing C-term: generation by proteasome-mediated digestion of fragments containing the correct C-terminus” value is on record as “-” and the “Intact Fragment: intact epitope found” value is on record as “-”.
On to `CC(C)C[C@H](NC(=O)[C@H](CCC(=O)O)NC(=O)[C@H](CCCNC(=N)N)NC(=O)[C@H](CC(C)C)NC(=O)[C@H](CCCNC(=N)N)NC(=O)[C@H](C)NC(=O)[C@H](Cc1c[nH]cn1)NC(=O)[C@H](CC(C)C)NC(=O)[C@H](Cc1ccc(O)cc1)NC(=O)[C@H](C)N)C(=O)O`, for which the “Processing C-term: generation by proteasome-mediated digestion of fragments containing the correct C-terminus” value was “+ ((+) present for <5%)”, the “Intact Fragment: intact epitope found” value is “+”, the C-term. generation result is on record as “+ (low abundant (+) present for <5%)” and the Intact in fragment entry is given as “+”.
Take `C[C@@H](O)[C@H](NC(=O)[C@H](CCCNC(=N)N)NC(=O)[C@H](CC(=O)O)NC(=O)CNC(=O)[C@H](CS)NC(=O)[C@H](Cc1c[nH]cn1)NC(=O)[C@@H]1CCCN1C(=O)[C@@H](N)CS)C(=O)N[C@@H](Cc1ccccc1)C(=O)N[C@@H](Cc1ccc(O)cc1)C(=O)O`: the “Processing C-term: generation by proteasome-mediated digestion of fragments containing the correct C-terminus” value is reported as “-” and the “Intact Fragment: intact epitope found” value is “-”.
Regarding `CC(C)C[C@H](NC(=O)[C@H](CC(C)C)NC(=O)[C@H](CO)NC(=O)[C@H](CCC(N)=O)NC(=O)CNC(=O)[C@H](C)NC(=O)[C@H](CC(C)C)NC(=O)[C@@H](N)CCC(=O)O)C(=O)N[C@@H](CCCCN)C(=O)O`, the “Processing C-term: generation by proteasome-mediated digestion of fragments containing the correct C-terminus” value is “-” and the “Intact Fragment: intact epitope found” value is “-”.
For the compound `CSCC[C@H](NC(=O)[C@H](Cc1ccccc1)NC(=O)[C@H](CC(C)C)NC(=O)[C@@H]1CCCN1C(=O)[C@@H]1CCCN1C(=O)[C@H](Cc1ccccc1)NC(=O)[C@@H](N)CC(C)C)C(=O)N[C@@H](C)C(=O)N[C@@H](C)C(=O)N[C@@H](Cc1ccccc1)C(=O)O`, the “Processing C-term: generation by proteasome-mediated digestion of fragments containing the correct C-terminus” value is recorded as “++ ((++) fragments present for >5%)” and the C-term. generation result is reported as “++ (abundant (++) present for >5%)”.
With `CSCC[C@H](NC(=O)[C@H](CO)NC(=O)[C@@H]1CCCN1C(=O)[C@H](CCCNC(=N)N)NC(=O)CNC(=O)[C@H](CC(C)C)NC(=O)[C@H](CCC(=O)O)NC(=O)[C@H](CS)NC(=O)[C@H](CC(C)C)NC(=O)[C@@H](N)CC(C)C)C(=O)O`, the “Processing C-term: generation by proteasome-mediated digestion of fragments containing the correct C-terminus” value is reported as “-” and the “Intact Fragment: intact epitope found” value is given as “-”.
As to `CC[C@H](C)[C@H](NC(=O)[C@H](C)NC(=O)[C@H](CC(C)C)NC(=O)[C@H](C)NC(=O)[C@H](CCC(=O)O)NC(=O)[C@H](CC(=O)O)NC(=O)[C@H](CCCCN)NC(=O)[C@H](CC(C)C)NC(=O)[C@@H](N)CC(C)C)C(=O)O`, the “Processing C-term: generation by proteasome-mediated digestion of fragments containing the correct C-terminus” value is “++ ((++) fragments present for >5%)”, the “Intact Fragment: intact epitope found” value is reported as “+”, the C-term. generation entry is “++ (abundant (++) present for >5%)” and the Intact in fragment result is “+”.
On to `CC(C)C[C@H](NC(=O)[C@H](CCCNC(=N)N)NC(=O)[C@H](C)NC(=O)[C@H](Cc1c[nH]cn1)NC(=O)[C@H](CC(C)C)NC(=O)[C@H](Cc1ccc(O)cc1)NC(=O)[C@H](C)NC(=O)[C@H](CC(C)C)NC(=O)[C@@H](N)CCCNC(=N)N)C(=O)O`, for which the “Processing C-term: generation by proteasome-mediated digestion of fragments containing the correct C-terminus” value was “++ ((++) fragments present for >5%)”, the “Intact Fragment: intact epitope found” value is recorded as “+”, the C-term. generation result is listed as “++ (abundant (++) present for >5%)” and the Intact in fragment result is reported as “+”.
`CC(C)C[C@H](NC(=O)[C@H](CCC(=O)O)NC(=O)[C@H](CS)NC(=O)[C@H](CC(C)C)NC(=O)[C@H](CC(C)C)NC(=O)[C@H](CCC(=O)O)NC(=O)[C@H](CCCNC(=N)N)NC(=O)[C@H](CC(C)C)NC(=O)[C@@H](N)CCCNC(=N)N)C(=O)O`: the “Processing C-term: generation by proteasome-mediated digestion of fragments containing the correct C-terminus” value is given as “-” and the “Intact Fragment: intact epitope found” value is recorded as “-”.
Turning to `CC(C)C[C@H](NC(=O)[C@H](CO)NC(=O)[C@H](CCC(N)=O)NC(=O)CNC(=O)[C@H](C)NC(=O)[C@H](CC(C)C)NC(=O)[C@H](CCC(=O)O)NC(=O)[C@@H](NC(=O)[C@H](CC(C)C)NC(=O)[C@@H](N)CCCNC(=N)N)C(C)C)C(=O)O`, the “Processing C-term: generation by proteasome-mediated digestion of fragments containing the correct C-terminus” value was “-” and the “Intact Fragment: intact epitope found” value is listed as “-”.
As for `CC[C@H](C)[C@H](NC(=O)[C@H](C)NC(=O)[C@H](CC(C)C)NC(=O)[C@H](C)NC(=O)[C@H](CCC(=O)O)NC(=O)[C@H](CC(=O)O)NC(=O)[C@H](CCCCN)NC(=O)[C@H](CC(C)C)NC(=O)[C@H](CC(C)C)NC(=O)[C@@H](N)CO)C(=O)O`, the “Processing C-term: generation by proteasome-mediated digestion of fragments containing the correct C-terminus” value is on record as “++ ((++) fragments present for >5%)”, the “Intact Fragment: intact epitope found” value was “+”, the C-term. generation entry is reported as “++ (abundant (++) present for >5%)” and the Intact in fragment result is “+”.
`CC[C@H](C)[C@H](NC(=O)[C@@H]1CCCN1C(=O)[C@H](CCC(=O)O)NC(=O)[C@@H]1CCCN1C(=O)[C@H](CC(=O)O)NC(=O)[C@H](Cc1ccc(O)cc1)NC(=O)[C@H](Cc1ccccc1)NC(=O)[C@@H](N)[C@@H](C)O)C(=O)N[C@@H](CC(C)C)C(=O)O`: the “Processing C-term: generation by proteasome-mediated digestion of fragments containing the correct C-terminus” value was “-” and the “Intact Fragment: intact epitope found” value is recorded as “-”.
As to `CC(C)C[C@H](NC(=O)[C@H](CCCNC(=N)N)NC(=O)[C@H](CCC(=O)O)NC(=O)[C@H](CC(C)C)NC(=O)[C@H](Cc1c[nH]cn1)NC(=O)[C@H](CC(C)C)NC(=O)[C@@H](N)[C@@H](C)O)C(=O)N[C@@H](C)C(=O)N[C@@H](Cc1ccc(O)cc1)C(=O)O`, the “Processing C-term: generation by proteasome-mediated digestion of fragments containing the correct C-terminus” value is recorded as “-” and the “Intact Fragment: intact epitope found” value was “-”.
As for `CC(C)C[C@H](NC(=O)[C@H](Cc1ccc(O)cc1)NC(=O)[C@H](C)NC(=O)[C@H](CC(C)C)NC(=O)[C@H](CCCNC(=N)N)NC(=O)[C@H](CCC(=O)O)NC(=O)[C@H](CC(C)C)NC(=O)[C@H](Cc1c[nH]cn1)NC(=O)[C@H](CC(C)C)NC(=O)[C@@H](N)[C@@H](C)O)C(=O)O`, the “Processing C-term: generation by proteasome-mediated digestion of fragments containing the correct C-terminus” value was “-” and the “Intact Fragment: intact epitope found” value was “-”.
Regarding `CC(C)C[C@H](NC(=O)[C@H](CC(C)C)NC(=O)[C@H](CCC(=O)O)NC(=O)[C@H](CCCNC(=N)N)NC(=O)[C@H](CC(C)C)NC(=O)[C@H](CCCNC(=N)N)NC(=O)[C@H](C)NC(=O)[C@H](Cc1c[nH]cn1)NC(=O)[C@H](CC(C)C)NC(=O)[C@@H](N)Cc1ccc(O)cc1)C(=O)O`, the “Processing C-term: generation by proteasome-mediated digestion of fragments containing the correct C-terminus” value was “+ ((+) present for <5%)”, the “Intact Fragment: intact epitope found” value is listed as “+”, the C-term. generation entry is “+ (low abundant (+) present for <5%)” and the Intact in fragment result is reported as “+”.
